The values that follow come from paper PMC3262104 (Journal of the American Chemical Society, 2011).

The target in series [1] is T1, P-gp (Homo sapiens, UniProt P08183). Briefly: Inhibition of P-gp-mediated efflux of calcein-AM in 12D7-MDR cells. In kind it is cell-based.
Series [2] addresses T1, P-gp. Put plainly: [125I]IAAP photo-crosslinking competition, crude Sf9 membranes expressing P-gp. In kind it is binding.
For another series, the system named is HIV-1LAI. Briefly: Inhibition of HIV-1 replication, HIV p24 ELISA in infected 12D7 cells. In kind it is cell-based. The conditions noted are these: Human immunodeficiency virus 1, read-out: IC50 inhibition of HIV-1 replication.
Series [3] relates to P-gp. The conditions noted are these: brain; cited from earlier work.

Some results are limits rather than exact numbers.

What is called IC50 is the point on the concentration scale where inhibition reaches its midpoint.

T1 sequence (P08183 whole entry): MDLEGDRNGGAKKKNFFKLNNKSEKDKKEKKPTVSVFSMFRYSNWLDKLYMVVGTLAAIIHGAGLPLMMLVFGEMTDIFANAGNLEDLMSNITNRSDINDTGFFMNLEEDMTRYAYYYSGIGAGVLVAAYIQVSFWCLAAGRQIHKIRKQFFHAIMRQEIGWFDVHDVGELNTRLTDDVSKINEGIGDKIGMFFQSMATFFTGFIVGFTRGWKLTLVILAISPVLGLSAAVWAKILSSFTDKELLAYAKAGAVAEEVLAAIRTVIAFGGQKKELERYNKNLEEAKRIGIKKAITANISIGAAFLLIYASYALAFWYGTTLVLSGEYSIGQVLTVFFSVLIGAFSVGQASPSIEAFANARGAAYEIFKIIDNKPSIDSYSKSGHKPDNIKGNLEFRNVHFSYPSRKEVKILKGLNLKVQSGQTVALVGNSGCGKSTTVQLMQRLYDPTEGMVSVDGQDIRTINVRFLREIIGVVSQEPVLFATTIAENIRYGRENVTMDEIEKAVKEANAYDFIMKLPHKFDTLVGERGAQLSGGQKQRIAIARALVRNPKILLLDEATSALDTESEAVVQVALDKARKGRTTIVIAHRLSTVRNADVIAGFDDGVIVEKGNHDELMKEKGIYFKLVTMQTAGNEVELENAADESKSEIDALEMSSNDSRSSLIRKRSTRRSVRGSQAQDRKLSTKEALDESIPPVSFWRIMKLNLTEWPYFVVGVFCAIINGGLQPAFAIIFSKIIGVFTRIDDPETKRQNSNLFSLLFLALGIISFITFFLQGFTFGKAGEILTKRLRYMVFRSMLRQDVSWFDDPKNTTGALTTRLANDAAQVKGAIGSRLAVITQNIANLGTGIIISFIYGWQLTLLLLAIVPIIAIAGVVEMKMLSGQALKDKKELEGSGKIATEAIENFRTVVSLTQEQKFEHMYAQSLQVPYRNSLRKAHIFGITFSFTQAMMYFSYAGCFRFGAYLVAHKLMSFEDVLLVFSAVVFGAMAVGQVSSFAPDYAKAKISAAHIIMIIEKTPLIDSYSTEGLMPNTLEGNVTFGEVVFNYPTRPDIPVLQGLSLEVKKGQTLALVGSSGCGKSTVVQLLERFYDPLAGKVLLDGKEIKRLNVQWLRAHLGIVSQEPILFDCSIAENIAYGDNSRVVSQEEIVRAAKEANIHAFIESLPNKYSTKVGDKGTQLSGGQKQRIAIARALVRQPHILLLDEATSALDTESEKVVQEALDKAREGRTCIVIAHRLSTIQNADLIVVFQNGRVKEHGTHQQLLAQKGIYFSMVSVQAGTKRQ

For `Nc1nc(NC2CC2)c2ncn([C@H]3C=C[C@@H](CO)C3)c2n1` [abacavir], the IC50 at P-gp [1] is > 500 µM; at P-gp [2] it was > 100 µM; in the series with HIV-1LAI, ~0.6 µM. The “Inhibition of P-gp mediated efflux of fluorescent substrates” value on P-gp [1] (12D7-MDR cells, at a concentration of 500 µM) is given as “only minimally effective”. The “Increased levels in the brains of dosed P-gp-null mice versus dosed wild-type mice” value with P-gp [3] is 20 fold.
